Reference: patent EP4631938A1, “NITROGEN-CONTAINING HETEROCYCLE WITH SEROTONIN RECEPTOR-BINDING ACTIVITY AND CARBOCYCLIC DERIVATIVE” (Shionogi & Co., Ltd, priority 2022, dated 2024)
Where two headings read alike, the source gives them in different places.

Columns and labels:
[1] = target: T1, human recombinant 5-HT2A receptor (Homo sapiens, UniProt P28223); experiment: Test Example 1-2: 5-HT2A receptor binding inhibition test ([3H]-Ketanserin; non-specific ligand Ketanserin)
T1 construct: expressed in transfected cells; host or cells: Jump-In HEK cells (membrane preparation)
T1 sequence (P28223 whole entry): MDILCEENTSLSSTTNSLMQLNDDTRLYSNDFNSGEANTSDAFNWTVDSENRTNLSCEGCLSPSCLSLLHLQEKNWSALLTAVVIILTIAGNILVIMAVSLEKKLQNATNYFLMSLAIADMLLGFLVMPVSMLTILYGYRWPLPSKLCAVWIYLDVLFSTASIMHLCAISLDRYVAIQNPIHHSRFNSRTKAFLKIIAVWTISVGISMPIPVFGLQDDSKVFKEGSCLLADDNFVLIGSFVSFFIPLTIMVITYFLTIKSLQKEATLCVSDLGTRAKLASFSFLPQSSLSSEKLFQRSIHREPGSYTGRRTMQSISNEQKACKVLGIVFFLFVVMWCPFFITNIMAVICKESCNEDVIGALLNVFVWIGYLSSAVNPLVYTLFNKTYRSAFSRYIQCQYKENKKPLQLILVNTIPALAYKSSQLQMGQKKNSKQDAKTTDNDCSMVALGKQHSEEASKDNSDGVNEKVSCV
Method in brief: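 Membranes expressing the receptor were incubated with [3H]-ketanserin and compound for 1.5 h at 25 °C, then filtered onto plates presoaked in 50 mmol/L Tris-HCl pH 7.4 and scintillation-counted. Non-specific binding was defined with 500 µmol/L unlabeled ketanserin. Ki was taken from dose-response curves, with Kd set for each membrane lot by Scatchard analysis.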

[2] = target: T2, human recombinant 5-HT2C receptor (Homo sapiens, UniProt P28335); experiment: Test Example 2-2: 5-HT2C receptor binding inhibition test ([3H]-Mesulergine; non-specific ligand Ketanserin); conditions: non-specific binding with 500 µmol/L Ketanserin, 37°C, 2 hours
T2 construct: expressed in transfected cells; host or cells: Jump-In HEK cells (membrane preparation)
T2 sequence (P28335 33-458): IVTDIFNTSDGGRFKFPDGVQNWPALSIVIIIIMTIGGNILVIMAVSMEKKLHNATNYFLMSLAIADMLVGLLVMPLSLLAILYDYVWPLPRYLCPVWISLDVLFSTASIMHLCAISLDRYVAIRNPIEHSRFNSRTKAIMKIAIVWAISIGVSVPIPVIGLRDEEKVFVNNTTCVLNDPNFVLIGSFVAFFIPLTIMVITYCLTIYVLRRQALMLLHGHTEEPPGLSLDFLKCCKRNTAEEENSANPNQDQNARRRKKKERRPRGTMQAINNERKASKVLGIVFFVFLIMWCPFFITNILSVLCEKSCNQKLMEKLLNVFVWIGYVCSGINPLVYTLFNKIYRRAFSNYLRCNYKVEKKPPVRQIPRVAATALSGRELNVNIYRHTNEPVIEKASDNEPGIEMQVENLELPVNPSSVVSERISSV
Method in brief: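 Membranes expressing the receptor were incubated with compound and [3H]-Mesulergine for 2 h at 37 °C, then filtered and counted by scintillation. Non-specific binding was defined with 500 µmol/L Ketanserin. Percent inhibition versus vehicle gave dose-response curves, from which Ki was derived using a Kd from Scatchard saturation analysis.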

[3] = [3H]-Ketanserin, non-specific binding with 500 µmol/L Ketanserin, room temperature (25°C), 1.5 hours, read-out: h 5-HT2A Ki

SMILES	Ki [1, 3] [nM]	Ki [2] [nM]	Ki [1] [nM]
Cn1ncc(C#N)c1-c1cc(Nc2ncc(C(F)(F)F)cc2F)cc(F)c1OCCO [Compound I-110]	0.375	17.3	
Cn1ncc(Br)c1-c1cc(Nc2nccc3cccnc23)ccc1OCCO [Compound I-111]	2.98	24.2	
Cn1ncc(Br)c1-c1cc(Nc2ncc(Cl)c3ccccc23)ccc1OCCO [Compound I-113]	0.295	3.09	
Cn1ncc(Br)c1-c1cc(Nc2nccn3c(Br)cnc23)ccc1OCCO [Compound I-114]	1.56	4.68	
Cn1ncc(Br)c1-c1cc(Nc2ccc(Cl)cn2)cnc1OCCO [Compound I-116]	0.325	0.745	
Cn1ncc(Br)c1-c1cc(Nc2ncc(C3CC3)cn2)ccc1OCCO [Compound I-120]	0.903	3.86	
Cc1nc(C)c(-c2cc(Nc3ccc(C(F)(F)F)cn3)ccc2OCCO)c(C)n1 [Compound I-122]	0.485	1.38	
Cc1nc(C)c(-c2cc(Nc3ccc(Cl)cn3)ccc2OCCO)c(C)n1 [Compound I-123]	0.81	5.59	
Cn1ncc(C#N)c1-c1cc(Nc2ccc(C(F)(F)F)cn2)c(F)cc1OCCO [Compound I-125]	0.36	6.04	
Cc1cnn(C)c1-c1cc(Nc2ccc(C(F)(F)F)cn2)c(Oc2ccn(C)n2)cc1OCCO [Compound I-126]	0.654	4.42	
Cn1ncc(Br)c1-c1cc(Nc2ncc(C3CC3)cn2)cnc1OCCO [Compound I-133]	0.322	2.53	
Cc1ncnc(C)c1-c1cc(Nc2ncc(C(F)(F)F)cc2F)cnc1OCCO [Compound I-134]	0.621	13.2	
Cc1nc(C)c(-c2cc(Nc3ncc(C(F)(F)F)cc3F)cnc2OCCO)c(C)n1 [Compound I-135]	1.24	7.13	
Cn1ncc(F)c1-c1cc(Nc2ncc(Cl)cc2F)cnc1OCCO [Compound I-139]	0.431	7.73	
Cc1cnn(C)c1-c1cc(Nc2ncc(Cl)cc2F)cnc1OCCO [Compound I-141]	0.296	4.07	
Cc1cnn(C)c1-c1cc(Nc2ncc(C(F)(F)F)cc2F)c(F)cc1OCCO [Compound I-144]	0.341	2.49	
Cn1ncc(Br)c1-c1cc(Nc2ncc(C(F)(F)F)cn2)c(F)cc1OCCO [Compound I-148]	0.506	0.906	

SMILES	Ki [1, 3] [nM]	Ki [2] [nM]	Ki [1] [nM]
Cn1ncc(Br)c1-c1cc(Nc2ncc(Cl)cn2)c(F)cc1OCCO [Compound I-149]	0.365	1.35	
Cn1ncc(Br)c1-c1cc(Nc2ccc(C(F)(F)F)cn2)c(F)cc1OCCO [Compound I-151]	0.292	0.206	
Cn1ncc(Br)c1-c1cc(Nc2ncc(Cl)cc2F)c(F)cc1OCCO [Compound I-152]	0.354	0.52	
Cn1ncc(Br)c1-c1cc(Nc2ccc(Cl)cn2)c(F)cc1OCCO [Compound I-153]	0.286	0.351	
Cn1ncc(Br)c1-c1cc(Nc2ncc(F)cc2F)c(F)cc1OCCO [Compound I-154]	0.332	1.1	
Cn1ncc(Br)c1-c1cc(Nc2ncc(Cl)cc2F)ncc1OCCO [Compound I-155]	0.318	1.04	
Cn1ncc(Cl)c1-c1cc(Nc2ncc(Cl)cc2F)ncc1OCCO [Compound I-156]	0.315	1.78	
Cc1nc(C)c(-c2cc(Nc3ccc(C(F)(F)F)cn3)c(F)cc2OCCO)c(C)n1 [Compound I-158]	0.907	3.5	
Cn1ncc(Br)c1-c1cc(Nc2ncc(C(F)(F)F)cn2)ncc1OCCO [Compound I-159]	0.295	1.88	
Cn1ncc(C#N)c1-c1cc(Nc2ncc(C(F)(F)F)cc2F)ccc1OCCO [I-031]		1.6	0.239
C=C(C)c1cnn(C)c1-c1cc(Nc2ncc(C(F)(F)F)cc2F)ccc1OCCO [I-054]		1.03	0.632
CC(C)c1cnn(C)c1-c1cc(Nc2ncc(C(F)(F)F)cc2F)ccc1OCCO [I-056]		1.04	1.3
C#Cc1cnn(C)c1-c1cc(Nc2ncc(C(F)(F)F)cc2F)ccc1OCCO [I-058]		0.456	0.418
Cn1ncc(Br)c1-c1cc(Nc2nc3ccc(Cl)cc3s2)ccc1OCCO [I-064]		0.18	0.327
Cn1cnc(C#N)c1-c1cc(Nc2ncc(C(F)(F)F)cc2F)ccc1OCCO [I-065]		5.02	0.15
Cn1ncc(Br)c1-c1cc(Nc2ncc(C(F)(F)F)cc2F)cnc1OCCO [I-082]		0.358	0.184
Cn1ncc(C#N)c1-c1cc(Nc2ncc(C(F)(F)F)cc2F)c(F)cc1OCCO [I-108]		6.23	0.478

The remaining compounds from weak to strong by Ki [1, 3], led by results:

Ki [1, 3] [nM]	Ki [2] [nM]	SMILES	Ki [1] [nM]
0.279	1.3	Cn1ncc(C#N)c1-c1cc(Nc2ccc(OC(F)(F)F)cn2)ccc1OCCO [Compound I-121]	
0.279	0.239	Cn1ncc(Br)c1-c1cc(Nc2ncc(C(F)(F)F)cc2F)c(F)cc1OCCO [Compound I-150]	
0.276	25.5	Cn1ncc(Br)c1-c1cc(Nc2nccc3ccccc23)ccc1OCCO [Compound I-112]	
0.269	0.195	Cn1ncc(Cl)c1-c1cc(Nc2ncc(C(F)(F)F)cc2F)cnc1OCCO [Compound I-142]	
0.265	0.818	Cn1ncc(Cl)c1-c1cc(Nc2ncc(C(F)(F)F)cc2F)ncc1OCCO [Compound I-115]	
0.264	4.76	Cn1ncc(Cl)c1-c1cc(Nc2ncc(Cl)cn2)ccc1OCCO [Compound I-138]	
0.262	0.596	Cn1ncc(Br)c1-c1cc(Nc2nc3ccccc3s2)cnc1OCCO [Compound I-118]	
0.259	2.32	Cc1ncnc(C)c1-c1cc(Nc2ccc(OC(F)(F)F)cn2)ccc1OCCO [Compound I-124]	
0.259	0.274	Cn1ncc(Cl)c1-c1cc(Nc2ncc(Cl)cc2F)cnc1OCCO [Compound I-143]	
0.259	4.75	Cc1noc(C)c1-c1cc(Nc2ncc(C(F)(F)F)cc2F)c(F)cc1OCCO [Compound I-147]	
0.258	0.452	Cn1ncc(Br)c1-c1cc(Nc2ccc(C3CC3)cn2)cnc1OCCO [Compound I-128]	
0.256	3.26	Cn1ncc(Br)c1-c1cc(Nc2ncc(Cl)s2)cnc1OCCO [Compound I-130]	
0.241	0.305	Cn1ncc(Br)c1-c1cc(Nc2ncc(Cl)cc2F)cnc1OCCO [Compound I-117]	
0.238	2.33	Cc1cnn(C)c1-c1cc(Nc2ccc(C(F)(F)F)cn2)c(F)cc1OCCO [Compound I-157]	
0.237	0.959	Cn1ncc(Br)c1-c1cc(Nc2ncc(C3CC3)s2)cnc1OCCO [Compound I-129]	
0.236	5	Cn1ncc(Br)c1-c1cc(Nc2ncc(Cl)cn2)cnc1OCCO [Compound I-132]	
0.205	0.772	Cn1ncc(Cl)c1-c1cc(Nc2ncc(F)cc2F)ccc1OCCO [Compound I-137]	
0.202	4.76	Cn1ncc(F)c1-c1cc(Nc2ncc(C(F)(F)F)cc2F)c(F)cc1OCCO [Compound I-145]	
0.167	0.277	Cn1ncc(Cl)c1-c1cc(Nc2ncc(Cl)cc2F)ccc1OCCO [Compound I-136]	
0.163	1.25	Cn1ncc(Br)c1-c1cc(Nc2ncc(C(F)(F)F)cn2)cnc1OCCO [Compound I-131]	
0.148	1.06	Cc1cnn(C)c1-c1cc(Nc2ncc(Cl)cc2F)ccc1OCCO [Compound I-140]	
